Reference: publication PMC4389225, “Triaminopyrimidine is a fast-killing and long-acting antimalarial clinical candidate” (Nature Communications, 2015)

What was measured:
Dd2 PI4K Cpd 1 = experiment: [3H]-hypoxanthine incorporation assay, Dd2 PI4K Cpd 1 resistant; type: cell-based; conditions: Plasmodium falciparum
Description: (§1) Supplementary Table 3: Compound 9 and 12 retain their activity against Pf strains harbouring mutations to novel antimalarial agents in clinical development. Compound 9 and 12 were tested for their antiplasmodial activity against a panel of Pf strains known to harbour mutations conferring resistance to novel agents under clinical development. Parasite growth inhibition is measured using the [3H]-hypoxanthine incorporation assay. IC50s are established for each strain (n ≥2) and compared to the IC50 of Dd2 (standard pan-resistant […]

Cpd 4 Unpublished Target = experiment: [3H]-hypoxanthine incorporation assay, Cpd 4 Unpublished Target resistant; type: cell-based; conditions: Plasmodium falciparum
Description: as §1

Pf W2 = experiment: microbe, parasite or virus in culture; type: cell-based; conditions: Plasmodium falciparum
Text: (§2) tested in duplicate from two independent experiments using a SYBR-Green based assay2.
(§3) (1 picture or pasted object on this page, not shown here)

Pf NF54 = experiment: microbe, parasite or virus in culture; type: cell-based; conditions: Plasmodium falciparum
Text: as §2, §3

Pf SB1 = experiment: microbe, parasite or virus in culture; type: cell-based; conditions: Plasmodium falciparum
Text: as §2, §3

Pf 7G8 = experiment: microbe, parasite or virus in culture; type: cell-based; conditions: Plasmodium falciparum
Text: as §2, §3

Pf K1 = experiment: microbe, parasite or virus in culture; type: cell-based; conditions: Plasmodium falciparum
Text: as §2, §3

Pf DD2 = experiment: microbe, parasite or virus in culture; type: cell-based; conditions: Plasmodium falciparum
Text: as §2, §3

PfATP4 Cpd 2 = experiment: [3H]-hypoxanthine incorporation assay, PfATP4 Cpd 2 resistant; type: cell-based; conditions: Plasmodium falciparum
Description: as §1

Dd2 bc-1 ELQ-300 = experiment: [3H]-hypoxanthine incorporation assay, Dd2 bc-1 ELQ-300 resistant; type: cell-based, Plasmodium falciparum; conditions: Plasmodium falciparum, DD2
Description: as §1

Dd2 PfATP4 NITD609 = experiment: [3H]-hypoxanthine incorporation assay, Dd2 PfATP4 NITD609 resistant; type: cell-based; conditions: Plasmodium falciparum
Description: as §1

[1] = PK in the blood of infected Pf/SCID mice; type: in vivo, mouse; conditions: for CL/F: SCID, mouse, whole blood
Description: Peripheral blood samples (25 μl) were taken at different times (0.25, 0.5, 1, 2, 4, 6, 8 and 23 h), mixed with 25 μl of H2O Mili-Q and immediately frozen on dry ice. The frozen samples were stored at −80 °C until analysis. Vehicle-treated mice experienced the same blood-sampling regimen. Blood samples were processed by liquid–liquid extraction by mixing 10 μl diluted blood with 180 μl AcN:MeOH (80:20; v-v) mixture. Quantitative analysis by Liquid chromatography-tandem mass spectrometry (LC-MS/MS) was performed using UPLC (Waters) and Sciex API4000. The lower limit of quantification in this assay was 0.005 μg ml^−1.

PfATP4 Cpd 3 = experiment: [3H]-hypoxanthine incorporation assay, PfATP4 Cpd 3 resistant; type: cell-based; conditions: Plasmodium falciparum
Description: as §1

[2] = tested on: asexual blood stage of Pf; experiment: Pf asexual blood stage potency (Pf IC50); type: cell-based, Plasmodium falciparum
Text: The TAPs series emerged from a high-throughput screen (HTS) of 500,000 compounds from the AstraZeneca corporate library against the asexual blood stage of Pf using a high-content image-based approach. The procedure for synthesis of compounds 1-6, 10, 11 using a scheme similar to Fig. 1 is provided in Supplementary Note 1. The initial hit provided multiple diversification points for a robust lead optimization campaign. […] Compounds with 2-pyridyl modification at the 2-amino position of pyrimidine core improved potency and solubility at the cost of potent activity against hERG and acetylcholine esterase (AChE; compounds 3-6; Table 1). […] The observed hERG and AChE selectivity improvement with 7 could be attributed to the polar nature of the pyrazole group and its role in reducing the pKa of the core pyrimidine ring. […] To assess the potential for cross-resistance, representative TAPs were screened against a panel of clinical isolates and in vitro-generated mutant strains displaying varying mechanisms of resistance to antimalarial agents currently in use and under development, respectively, (Supplementary Tables 1–3).

Pf3D7^0087/N9 = experiment: animal or person; type: in vivo, Plasmodium falciparum
Text: All animal studies were ethically reviewed and carried out in accordance with European Directive 86/609/EEC and the GSK Policy on the Care, Welfare and Treatment of Animals. During this experiment, female mice were used from the batch NSGJ 01/1 (The Jackson Laboratory, USA). The therapeutic efficacy of compound 12 against Pf3D7^0087/N9 was studied using a ‘4-day test’ reported earlier. Briefly, NODscidIL2Rγ^null mice engrafted with human erythrocytes were infected with 20 × 10^6 Pf-infected erythrocytes. Infections were performed by i.v. inoculation. All mice were randomly assigned to their corresponding treatment. The treatment started at day 3 and finished at day 6 after infection. The compound was administered orally as a suspension in 0.5% w/v hydroxypropyl methylcellulose (HPMC) with 0.1% v/v Tween 80, using an oral gavage at a maximum dose volume of 20 ml kg^−1. Vehicle alone was administered in untreated mice. In all cases, parasitemia was assessed in samples from peripheral blood obtained at days 3–7 after infection. A qualitative analysis of the effect of treatment on Pf3D7^0087/N9 was assessed by microscopy and flow cytometry. Fresh samples of peripheral blood from Pf-infected mice were stained with TER-119-Phycoerythrine (marker of murine erythrocytes) and SYTO-16 (nucleic acid dye) and then analysed by flow cytometry (FACS Calibur, BD). Microscopy analysis was performed with Giemsa-stained blood smears from samples taken at days 5 and 7 (48 and 96 h after starting treatment, respectively).
PK-PD model for the metabolite (compound 9) alone. Pharmacokinetic data from the Pf/SCID model was linked to efficacy using the following equation5.
Where P [log (total no. of parasites / mouse)], Kgro (growth rate constant), Pmax (log (maximum no. of parasites / mouse)), Kkill (maximum kill rate constant), H (Hill slope), EC50 (concentration required for achieving half maximal kill rate) and Ce (concentration of the drug in the effect compartment). Percent parasitemia values were converted into total number of parasites in mouse blood assuming […] (9.23 log10) RBCs per mouse. The lower limit of quantitation for % parasitemia was 0.01% or 5.23 log10. Effect compartment was used for modelling the delay observed in efficacy at a lower dose. […]

Dd2 DHODH DSM265 = experiment: [3H]-hypoxanthine incorporation assay, Dd2 DHODH DSM265 resistant; type: cell-based; conditions: Plasmodium falciparum
Description: as §1

Dd2 = experiment: [3H]-hypoxanthine incorporation assay, Dd2; type: cell-based, Plasmodium falciparum; conditions: Plasmodium falciparum, DD2
Description: 9 and 12 were tested for their antiplasmodial activity against a panel of Pf strains known to harbour mutations conferring resistance to novel agents under clinical development. Parasite growth inhibition is measured using the [3H]-hypoxanthine incorporation assay. IC50s are established for each strain (n ≥2) and compared to the IC50 of Dd2 (standard pan-resistant

[3] = 10 mg kg-1, one compartment POPK model
[4] = 30 mg kg-1, one compartment POPK model

Cc1nc(Nc2ncc(N3CCNC(C)C3)c(Nc3cc(C)n(C)n3)n2)cc(C2CC2)c1F.Cl.Cl (stereo not shown) [compound 9, N2-(4-cyclopropyl-5-fluoro-6-methylpyridin-2-yl)-N4-(1,5-dimethyl-1H-pyrazol-3-yl)-5-(3-methylpiperazin-1-yl)pyrimidine-2,4-diamine dihydrochloride]
IC50 (Dd2 PI4K Cpd 1): 10 nM | IC50 (Cpd 4 Unpublished Target): 9.4 nM | IC50 (Pf W2): 28.1 ± 8 nM | IC50 (Pf NF54): 18.5 ± 5 nM | IC50 (Pf SB1): 25.6 ± 13 nM | IC50 (Pf 7G8): 26.5 ± 5 nM | IC50 (Pf K1): 33.8 ± 5 nM | IC50 (Pf DD2): 19.6 ± 7 nM | IC50 (PfATP4 Cpd 2): 11 nM | IC50 (Dd2 bc-1 ELQ-300): 10 nM | IC50 (Dd2 PfATP4 NITD609): 8.6 nM | Ka [1, 3]: 0.29 h⁻¹ | Ka [1, 4]: 0.62 h⁻¹ | V/F [1, 4]: 53 L/kg | CL/F [1, 3]: 122 mL/min/kg | CL/F [1, 4]: 117 mL/min/kg | V/F ([1]; compound 9, 10 mg kg-1, one compartment POPK model): 70 L/kg | CLm ([1]; metabolite, Fixed): 80 L/h/kg | Ke0m ([1]; metabolite, Fixed): 0.06 h⁻¹ | Vcm ([1]; metabolite, Fixed): 29 L/kg | IC50 (PfATP4 Cpd 3): 11 nM | IC50 ([2]; Plasmodium falciparum): 14 nM | improvement in Pf potency ([2]; compound 9 relative to compound 7): > 10 fold | Kkill (maximum kill rate constant) (Pf3D7^0087/N9; PK-PD model for compound 9 alone): 0.2 h⁻¹ | EC50 (Pf3D7^0087/N9; Plasmodium falciparum, in Mus musculus, read-out: EC50 (blood concentration for half-maximal kill rate)): 309 nM | Kkillm (Pf3D7^0087/N9; metabolite, Fixed): 0.2 h⁻¹ | IC50 (Dd2 DHODH DSM265): 9.1 nM | IC50 (Dd2): 6 nM
